# Results taken from patent US20260102460A1, “NOVEL COMBINATIONS OF ANTIBIOTICS AND NON-ANTIBIOTIC DRUGS EFFECTIVE IN VIVO AGAINST GRAM-POSITIVE BACTERIA, IN PARTICULAR METHICILLIN-RESISTANT S. AUREUS (MRSA)” (EUROPEAN MOLECULAR BIOLOGY LABORATORY, priority 2022, published 2026).
# What was measured:
# Type in all cases: cell-based, Staphylococcus aureus
# [1] = system: S. aureus USA300; experiment: Time-kill experiments; details: ticagrelor 5 μg/ml, gentamicin 1.5 μg/ml, plated every 30 minutes for 2 hours (FIG. 5d)
# Description: Overnight cultures of S. aureus USA300 were diluted 1:100 in 20 ml of TSB medium, incubated for 1 h in flasks at 37° C. with continuous shaking and diluted again 1:100 in 20 ml prewarmed TSB with ticagrelor (5 μg/ml), gentamicin (1.5 μg/ml), their combination or without drugs. 50 μl of serial 10-fold dilutions of cultures were plated on TSA plates every 30 minutes for 2 hours. Cell viability was determined by counting CFUs after plates were incubated overnight in four independent experiments.
# [2] = system: S. aureus Newman; experiment: Ticagrelor MIC upon purine supplementation; details: supplementation with adenosine, inosine or their combination; SSM9PR medium with 1% glucose
# Description: MICs were tested in all strains for the main screen. Drugs were two-fold serially diluted in 11 concentrations, and 32 no-drug control wells were included in each plate. Experiments were conducted in 384-well plates (ref. 781271 by Greiner BioOne), with a total volume of 30 μl for S. aureus and B. subtilis and 55 μl for S. pneumoniae. Volumes were optimized for each strain to achieve good dynamic range for growth and minimize risk of cross-contamination between wells. Plates were inoculated with a starting optical density at 595 nm (OD595 nm) of 0.01 from an overnight culture. All liquid handling was performed using a Biomek FX liquid handler (Beckman Coulter). Plates were sealed with breathable membranes and incubated at 37° C. OD595 nm was measured every 30 minutes for 14 hours. The MIC was considered as the first concentration at which growth was inhibited. Experiments were conducted in biological duplicates. For the adjuvant screen, antibiotics were tested in S. aureus DSM 20231 at the same concentrations as for the main screen. Non-antibiotics concentrations were selected to fall within therapeutic ranges.
# Ticagrelor (ref. SML2482, Sigma-Aldrich) MIC was measured upon purine supplementation in S. aureus Newman as described above in SSM9PR minimal medium supplemented with 1% glucose79, in 384-well plates (ref. 781271 by Greiner BioOne) with a final volume of 30 μl. […]
# [3] = system: S. aureus Newman; experiment: Cytochrome c binding assay (cell surface charge); details: ticagrelor 10 and 5 μg/ml for 20 minutes
# Description: The cytochrome c binding assay was conducted as previously described (Radlinski, L. C. et al. Chemical Induction of Aminoglycoside Uptake Overcomes Antibiotic Tolerance and Resistance in Staphylococcus aureus. Cell Chem Biol 26, 1355-1364.e4 (2019)). Briefly, overnight cultures of S. aureus Newman were diluted 1:1000 in 20 ml of TSB medium and grown in flasks at 37° C. with continuous shaking until they reached OD578 nm˜0.45. Samples were then incubated in the same conditions with or without 10 and 5 μg/ml ticagrelor for 20 minutes. Samples were centrifuged at 10000 g for 15 minutes, washed twice with 20 mM MOPS buffer (pH 7) and concentrated to reach a final A578 of 10 in a 96 well-plate (ref. 4483481, Applied Biosystems™) containing cytochrome c (0.25 mg/ml, ref. 101467, MP Bio) or MOPS buffer (FIG. 5g). The plate was incubated in the dark at room temperature for 10 minutes. The cell pellets were collected, and the amount of cytochrome c in the supernatant was determined spectrophotometrically at an OD410 nm. Two-fold dilutions of cytochrome c in the same plate, starting from 256 μg/ml, were used to obtain a standard curve onto which a linear model was fitted to calculate cytochrome c concentrations in the other wells. Results are expressed as unbound cytochrome c fraction in the supernatants. Experiments were conducted in four biological replicates.
smiles,measurement,setting,value
CCCSc1nc(N[C@@H]2C[C@H]2c2ccc(F)c(F)c2)c2nnn([C@@H]3C[C@H](OCCO)[C@@H](O)[C@H]3O)c2n1 [ticagrelor],interaction with gentamicin at killing level (CFU over time),[1],evident
same,interaction with gentamicin at killing level (CFU over time),[1]; listed as Ticagrelor,synergizes
same,change of MIC upon purine supplementation,[2],increased
same,binding of positively-charged cytochrome C to intact S. aureus cells,[3],increased
